Source: patent US20230071463A1, “SOLID STATE FORMS OF […] AND PROCESS FOR PREPARATION THEREOF” (TEVA PHARMACEUTICALS INTERNATIONAL GMBH, priority 2020, published 2023)

Experiments:
[1] = Solid state stability on exposure to high temperatures and high relative humidity; format: physicochemical
[2] = Solid state stability on exposure to high relative humidity; format: physicochemical

SMILES	stability when exposed to high temperatures and high relative humidity [1]	stability when exposed to high relative humidity [2]
[Cl][Mn-5]1234([Cl])[n+]5c6cccc5C[NH+]1[C@H]1CCCC[C@@H]1[NH+]2CC[NH+]3[C@H]1CCCC[C@@H]1[NH+]4C6 (some centres unmarked) [Form AM2, Avasopasem manganese]	stable	–
[Cl][Mn-5]1234([Cl])[n+]5c6cccc5C[NH+]1[C@H]1CCCC[C@@H]1[NH+]2CC[NH+]3[C@H]1CCCC[C@@H]1[NH+]4C6 (some centres unmarked) [Form AM1, Avasopasem manganese]	–	stable
